We go through three compounds from the kinase profiling compilation of Christmann-Franck et al. (2016).

SMILES strings stand for the structures.

MAPK3 (human), sequence (P27361 whole entry, looked up): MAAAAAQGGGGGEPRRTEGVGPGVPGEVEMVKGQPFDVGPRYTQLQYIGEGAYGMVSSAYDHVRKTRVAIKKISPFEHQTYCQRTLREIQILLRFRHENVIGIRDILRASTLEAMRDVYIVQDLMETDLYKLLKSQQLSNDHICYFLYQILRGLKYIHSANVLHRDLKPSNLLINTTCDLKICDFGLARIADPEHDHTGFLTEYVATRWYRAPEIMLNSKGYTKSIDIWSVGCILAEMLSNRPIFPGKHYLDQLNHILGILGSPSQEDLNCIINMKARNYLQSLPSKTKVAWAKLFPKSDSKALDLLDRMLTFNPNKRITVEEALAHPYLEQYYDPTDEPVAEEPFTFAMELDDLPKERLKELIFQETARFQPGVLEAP
LIMK1 (human), sequence (P53667 whole entry, looked up): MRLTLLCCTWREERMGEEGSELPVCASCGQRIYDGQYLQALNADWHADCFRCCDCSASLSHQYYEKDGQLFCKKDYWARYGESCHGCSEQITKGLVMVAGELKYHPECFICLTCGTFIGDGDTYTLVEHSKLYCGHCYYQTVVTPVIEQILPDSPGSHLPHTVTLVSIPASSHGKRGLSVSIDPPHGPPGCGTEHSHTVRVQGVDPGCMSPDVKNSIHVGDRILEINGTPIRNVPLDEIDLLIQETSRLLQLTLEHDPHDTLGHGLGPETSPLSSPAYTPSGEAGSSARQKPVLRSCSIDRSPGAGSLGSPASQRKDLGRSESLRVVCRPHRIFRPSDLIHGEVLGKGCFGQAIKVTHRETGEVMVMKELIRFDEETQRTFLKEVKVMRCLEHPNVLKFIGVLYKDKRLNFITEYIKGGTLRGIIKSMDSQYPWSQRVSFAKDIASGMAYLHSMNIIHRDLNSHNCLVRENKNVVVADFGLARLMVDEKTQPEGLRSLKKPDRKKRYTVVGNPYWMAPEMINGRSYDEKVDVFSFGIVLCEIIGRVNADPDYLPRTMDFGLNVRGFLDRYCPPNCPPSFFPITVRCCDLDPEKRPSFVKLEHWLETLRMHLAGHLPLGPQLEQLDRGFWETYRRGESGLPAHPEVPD
BRSK1 (human), sequence (Q8TDC3 whole entry, looked up): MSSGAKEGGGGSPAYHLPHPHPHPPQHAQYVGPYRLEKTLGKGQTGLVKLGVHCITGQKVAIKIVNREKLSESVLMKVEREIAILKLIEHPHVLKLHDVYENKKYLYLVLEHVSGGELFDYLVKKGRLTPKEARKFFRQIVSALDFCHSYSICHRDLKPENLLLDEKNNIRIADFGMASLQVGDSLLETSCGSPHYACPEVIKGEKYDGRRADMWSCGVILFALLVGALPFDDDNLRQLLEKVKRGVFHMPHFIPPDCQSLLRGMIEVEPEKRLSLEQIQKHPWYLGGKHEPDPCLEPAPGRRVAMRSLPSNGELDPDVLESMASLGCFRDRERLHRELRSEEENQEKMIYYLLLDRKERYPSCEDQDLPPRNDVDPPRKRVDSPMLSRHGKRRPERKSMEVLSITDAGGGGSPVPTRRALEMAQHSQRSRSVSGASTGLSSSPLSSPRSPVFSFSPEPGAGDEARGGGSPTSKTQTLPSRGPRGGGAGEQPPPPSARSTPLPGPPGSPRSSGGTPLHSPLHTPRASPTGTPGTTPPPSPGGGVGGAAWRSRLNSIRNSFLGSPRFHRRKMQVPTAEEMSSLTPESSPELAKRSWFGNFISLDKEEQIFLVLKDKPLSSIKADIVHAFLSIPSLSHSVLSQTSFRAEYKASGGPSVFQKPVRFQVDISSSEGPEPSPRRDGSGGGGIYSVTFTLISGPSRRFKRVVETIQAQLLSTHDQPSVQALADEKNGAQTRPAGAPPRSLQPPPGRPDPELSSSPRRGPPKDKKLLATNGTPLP

The target in one assay is ADRBK2 (human) (UniProt P35626). The experiment in a line: radiometric filter-binding kinase assay, Kinase HotSpot. The note with it: compound 0.5 µM; ATP 10 µM.
With `CC(C)[C@H](CO)Nc1nc(Nc2cc(N)cc(Cl)c2)c2ncn(C(C)C)c2n1`, the residual activity is 97.1%.

Take `O=C1Nc2ccccc2/C1=C1\Nc2ccccc2\C1=N/O`: the residual activity was determined as 108%.

Consider `O=C(Nc1cccc(Nc2cc(Nc3cccc(C(F)(F)F)c3)ncn2)c1)C1CC1`, for which the residual activity came to 103%.

The next assay concerns the target AXL (human) (UniProt P30530). The description is as above. The note with it: compound 0.5 µM; ATP 10 µM.
With `CC(C)[C@H](CO)Nc1nc(Nc2cc(N)cc(Cl)c2)c2ncn(C(C)C)c2n1`, the residual activity is 93.1%.

Take `O=C1Nc2ccccc2/C1=C1\Nc2ccccc2\C1=N/O`: the residual activity amounted to 82.3%.

For `O=C(Nc1cccc(Nc2cc(Nc3cccc(C(F)(F)F)c3)ncn2)c1)C1CC1`, the residual activity turned out to be 98.7%.

A further assay concerns the target BRSK1 (human) (UniProt Q8TDC3). The assay is described as above. Conditions: compound 0.5 µM; ATP 10 µM.
On to `CC(C)[C@H](CO)Nc1nc(Nc2cc(N)cc(Cl)c2)c2ncn(C(C)C)c2n1`, for which the residual activity was found to be 93.1%.

As for `O=C1Nc2ccccc2/C1=C1\Nc2ccccc2\C1=N/O`, the residual activity turned out to be 23.4%.

In the case of `O=C(Nc1cccc(Nc2cc(Nc3cccc(C(F)(F)F)c3)ncn2)c1)C1CC1`, the residual activity was 101%.

The target of a further assay is CDK7 CCNH MNAT1 (human) (UniProt P50613+P51948+P51946). The assay is described as above. The note with it: compound 0.5 µM; ATP 10 µM.
CDK7 CCNH MNAT1 (human), sequence (P50613 whole entry, looked up): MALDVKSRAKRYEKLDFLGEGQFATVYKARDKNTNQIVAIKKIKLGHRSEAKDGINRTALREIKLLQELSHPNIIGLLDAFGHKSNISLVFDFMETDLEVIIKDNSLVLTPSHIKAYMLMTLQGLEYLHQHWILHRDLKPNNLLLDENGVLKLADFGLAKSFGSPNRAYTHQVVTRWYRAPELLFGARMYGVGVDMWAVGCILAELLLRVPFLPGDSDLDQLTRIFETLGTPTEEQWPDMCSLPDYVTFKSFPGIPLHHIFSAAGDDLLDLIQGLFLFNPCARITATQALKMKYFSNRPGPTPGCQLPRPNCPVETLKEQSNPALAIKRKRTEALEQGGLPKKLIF
CDK7 CCNH MNAT1 (human), sequence (P51946 whole entry, looked up): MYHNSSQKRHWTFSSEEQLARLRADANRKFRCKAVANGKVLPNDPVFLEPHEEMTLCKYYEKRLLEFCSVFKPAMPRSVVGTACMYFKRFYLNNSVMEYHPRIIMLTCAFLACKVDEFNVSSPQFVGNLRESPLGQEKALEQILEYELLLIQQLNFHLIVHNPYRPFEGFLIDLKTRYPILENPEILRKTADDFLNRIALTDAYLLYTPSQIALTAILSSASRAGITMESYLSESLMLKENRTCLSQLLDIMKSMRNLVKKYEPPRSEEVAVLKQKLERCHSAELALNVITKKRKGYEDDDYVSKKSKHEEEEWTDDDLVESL
CDK7 CCNH MNAT1 (human), sequence (P51948 whole entry, looked up): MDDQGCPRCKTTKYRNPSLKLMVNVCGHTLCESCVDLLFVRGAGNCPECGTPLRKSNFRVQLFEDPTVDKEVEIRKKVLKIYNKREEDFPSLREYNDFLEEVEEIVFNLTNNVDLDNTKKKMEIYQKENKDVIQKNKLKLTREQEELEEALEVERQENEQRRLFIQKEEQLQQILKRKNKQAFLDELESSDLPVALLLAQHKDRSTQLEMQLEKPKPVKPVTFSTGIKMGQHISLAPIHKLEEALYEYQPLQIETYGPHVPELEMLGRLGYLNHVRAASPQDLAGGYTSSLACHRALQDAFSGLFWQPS
Turning to `CC(C)[C@H](CO)Nc1nc(Nc2cc(N)cc(Cl)c2)c2ncn(C(C)C)c2n1`, the residual activity was 54.7%.

For `O=C1Nc2ccccc2/C1=C1\Nc2ccccc2\C1=N/O`, the residual activity came out at 89.9%.

`O=C(Nc1cccc(Nc2cc(Nc3cccc(C(F)(F)F)c3)ncn2)c1)C1CC1`: the residual activity was found to be 97.6%.

For the next assay, the target named is CHEK2 (human) (UniProt O96017). Described as above. Conditions: compound 0.5 µM; ATP 10 µM.
CHEK2 (human), sequence (O96017 whole entry, looked up): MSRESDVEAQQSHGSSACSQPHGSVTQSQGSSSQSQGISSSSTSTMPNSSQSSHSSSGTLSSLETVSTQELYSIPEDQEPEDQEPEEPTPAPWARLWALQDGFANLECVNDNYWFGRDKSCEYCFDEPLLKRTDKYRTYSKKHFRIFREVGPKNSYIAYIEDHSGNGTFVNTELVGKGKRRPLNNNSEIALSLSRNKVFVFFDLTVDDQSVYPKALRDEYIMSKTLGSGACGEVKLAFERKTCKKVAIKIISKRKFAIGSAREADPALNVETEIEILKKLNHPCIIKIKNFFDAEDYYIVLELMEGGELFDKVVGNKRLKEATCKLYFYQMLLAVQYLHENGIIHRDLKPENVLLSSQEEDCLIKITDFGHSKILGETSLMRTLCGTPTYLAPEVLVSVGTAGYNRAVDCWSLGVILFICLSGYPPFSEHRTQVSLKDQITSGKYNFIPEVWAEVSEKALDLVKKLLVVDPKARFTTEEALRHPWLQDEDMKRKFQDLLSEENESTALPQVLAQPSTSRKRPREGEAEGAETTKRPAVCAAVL
With `CC(C)[C@H](CO)Nc1nc(Nc2cc(N)cc(Cl)c2)c2ncn(C(C)C)c2n1`, the residual activity is 96.3%.

In the case of `O=C1Nc2ccccc2/C1=C1\Nc2ccccc2\C1=N/O`, the residual activity was found to be 32.3%.

Consider `O=C(Nc1cccc(Nc2cc(Nc3cccc(C(F)(F)F)c3)ncn2)c1)C1CC1`, for which the residual activity was found to be 99.5%.

A further assay deals with CSF1R (human) (UniProt P07333). Described as above. Conditions: compound 0.5 µM; ATP 10 µM.
Take `CC(C)[C@H](CO)Nc1nc(Nc2cc(N)cc(Cl)c2)c2ncn(C(C)C)c2n1`: the residual activity is 71.1%.

For `O=C1Nc2ccccc2/C1=C1\Nc2ccccc2\C1=N/O`, the residual activity amounted to 83.2%.

As for `O=C(Nc1cccc(Nc2cc(Nc3cccc(C(F)(F)F)c3)ncn2)c1)C1CC1`, the residual activity is 99.9%.

The next assay addresses CSK (human) (UniProt P41240). The description is as above. The note with it: compound 0.5 µM; ATP 10 µM.
`CC(C)[C@H](CO)Nc1nc(Nc2cc(N)cc(Cl)c2)c2ncn(C(C)C)c2n1`: the residual activity was 79.3%.

With `O=C1Nc2ccccc2/C1=C1\Nc2ccccc2\C1=N/O`, the residual activity is 93%.

`O=C(Nc1cccc(Nc2cc(Nc3cccc(C(F)(F)F)c3)ncn2)c1)C1CC1`: the residual activity came to 102%.

The next assay deals with CSNK1E (human) (UniProt P49674). The description is as above. Conditions: compound 0.5 µM; ATP 10 µM.
Regarding `CC(C)[C@H](CO)Nc1nc(Nc2cc(N)cc(Cl)c2)c2ncn(C(C)C)c2n1`, the residual activity was 82.7%.

For the compound `O=C1Nc2ccccc2/C1=C1\Nc2ccccc2\C1=N/O`, the residual activity is 46.1%.

With `O=C(Nc1cccc(Nc2cc(Nc3cccc(C(F)(F)F)c3)ncn2)c1)C1CC1`, the residual activity amounted to 98.1%.

The next assay has as its target EPHB2 (human) (UniProt P29323). Described as above. Conditions: compound 0.5 µM; ATP 10 µM.
Take `CC(C)[C@H](CO)Nc1nc(Nc2cc(N)cc(Cl)c2)c2ncn(C(C)C)c2n1`: the residual activity came to 73.6%.

Consider `O=C1Nc2ccccc2/C1=C1\Nc2ccccc2\C1=N/O`, for which the residual activity was determined as 83.3%.

For the compound `O=C(Nc1cccc(Nc2cc(Nc3cccc(C(F)(F)F)c3)ncn2)c1)C1CC1`, the residual activity amounted to 88.6%.

For another assay, the target named is FGFR4 (human) (UniProt P22455). The assay is described as above. Conditions: compound 0.5 µM; ATP 10 µM.
As to `CC(C)[C@H](CO)Nc1nc(Nc2cc(N)cc(Cl)c2)c2ncn(C(C)C)c2n1`, the residual activity is 93.4%.

On to `O=C1Nc2ccccc2/C1=C1\Nc2ccccc2\C1=N/O`, for which the residual activity stood at 91.9%.

For `O=C(Nc1cccc(Nc2cc(Nc3cccc(C(F)(F)F)c3)ncn2)c1)C1CC1`, the residual activity turned out to be 102%.

In another assay the target is GRK5 (human) (UniProt P34947). The description is as above. Conditions: compound 0.5 µM; ATP 10 µM.
GRK5 (human), sequence (P34947 whole entry, looked up): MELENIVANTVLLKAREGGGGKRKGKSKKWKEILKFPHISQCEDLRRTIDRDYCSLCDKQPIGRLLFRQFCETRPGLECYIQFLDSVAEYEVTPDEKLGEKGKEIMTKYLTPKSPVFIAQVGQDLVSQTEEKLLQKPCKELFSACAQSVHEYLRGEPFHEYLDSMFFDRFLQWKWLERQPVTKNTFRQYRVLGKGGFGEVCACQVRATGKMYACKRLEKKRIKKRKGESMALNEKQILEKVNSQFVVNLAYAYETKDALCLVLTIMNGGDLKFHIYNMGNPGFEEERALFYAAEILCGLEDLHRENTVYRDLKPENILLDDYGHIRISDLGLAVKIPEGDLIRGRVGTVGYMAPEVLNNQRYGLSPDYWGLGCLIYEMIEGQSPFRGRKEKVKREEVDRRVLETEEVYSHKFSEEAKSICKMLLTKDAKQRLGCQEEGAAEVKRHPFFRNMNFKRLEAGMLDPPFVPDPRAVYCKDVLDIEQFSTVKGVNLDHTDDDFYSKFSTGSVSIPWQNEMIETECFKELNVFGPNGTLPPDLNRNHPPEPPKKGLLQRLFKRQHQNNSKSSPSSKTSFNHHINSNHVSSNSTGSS
Consider `CC(C)[C@H](CO)Nc1nc(Nc2cc(N)cc(Cl)c2)c2ncn(C(C)C)c2n1`, for which the residual activity amounted to 101%.

In the case of `O=C1Nc2ccccc2/C1=C1\Nc2ccccc2\C1=N/O`, the residual activity turned out to be 103%.

With `O=C(Nc1cccc(Nc2cc(Nc3cccc(C(F)(F)F)c3)ncn2)c1)C1CC1`, the residual activity turned out to be 109%.

For another assay, the target named is LCK (human) (UniProt P06239). Described as above. The note with it: compound 0.5 µM; ATP 10 µM.
LCK (human), sequence (P06239 whole entry, looked up): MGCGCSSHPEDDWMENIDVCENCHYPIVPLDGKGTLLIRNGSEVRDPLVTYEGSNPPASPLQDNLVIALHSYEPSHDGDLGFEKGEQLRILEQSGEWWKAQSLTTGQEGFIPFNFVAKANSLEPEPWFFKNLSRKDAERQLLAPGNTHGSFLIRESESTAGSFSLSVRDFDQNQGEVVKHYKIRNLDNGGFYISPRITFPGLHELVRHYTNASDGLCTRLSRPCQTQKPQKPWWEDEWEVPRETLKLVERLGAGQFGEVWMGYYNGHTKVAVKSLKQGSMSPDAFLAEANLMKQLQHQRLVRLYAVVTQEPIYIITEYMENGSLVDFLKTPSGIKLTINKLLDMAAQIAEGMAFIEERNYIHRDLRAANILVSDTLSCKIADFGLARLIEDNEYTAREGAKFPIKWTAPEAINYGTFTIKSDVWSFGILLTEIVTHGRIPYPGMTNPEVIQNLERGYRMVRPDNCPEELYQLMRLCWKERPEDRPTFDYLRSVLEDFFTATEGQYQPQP
For the compound `CC(C)[C@H](CO)Nc1nc(Nc2cc(N)cc(Cl)c2)c2ncn(C(C)C)c2n1`, the residual activity came out at 70.2%.

With `O=C1Nc2ccccc2/C1=C1\Nc2ccccc2\C1=N/O`, the residual activity stood at 77.1%.

In the case of `O=C(Nc1cccc(Nc2cc(Nc3cccc(C(F)(F)F)c3)ncn2)c1)C1CC1`, the residual activity amounted to 100%.

Another assay has as its target LIMK1 (human) (UniProt P53667). The description is as above. Conditions: compound 0.5 µM; ATP 10 µM.
On to `CC(C)[C@H](CO)Nc1nc(Nc2cc(N)cc(Cl)c2)c2ncn(C(C)C)c2n1`, for which the residual activity turned out to be 107%.

As for `O=C1Nc2ccccc2/C1=C1\Nc2ccccc2\C1=N/O`, the residual activity is 65.9%.

`O=C(Nc1cccc(Nc2cc(Nc3cccc(C(F)(F)F)c3)ncn2)c1)C1CC1`: the residual activity came out at 95.9%.

The next assay has as its target MAP2K1 (human) (UniProt Q02750). The description is as above. The note with it: compound 0.5 µM; ATP 10 µM.
Turning to `CC(C)[C@H](CO)Nc1nc(Nc2cc(N)cc(Cl)c2)c2ncn(C(C)C)c2n1`, the residual activity was 91.3%.

For `O=C1Nc2ccccc2/C1=C1\Nc2ccccc2\C1=N/O`, the residual activity stood at 99.6%.

Regarding `O=C(Nc1cccc(Nc2cc(Nc3cccc(C(F)(F)F)c3)ncn2)c1)C1CC1`, the residual activity came out at 98.9%.

A further assay deals with MAP2K2 (human) (UniProt P36507). Described as above. The note with it: compound 0.5 µM; ATP 10 µM.
MAP2K2 (human), sequence (P36507 whole entry, looked up): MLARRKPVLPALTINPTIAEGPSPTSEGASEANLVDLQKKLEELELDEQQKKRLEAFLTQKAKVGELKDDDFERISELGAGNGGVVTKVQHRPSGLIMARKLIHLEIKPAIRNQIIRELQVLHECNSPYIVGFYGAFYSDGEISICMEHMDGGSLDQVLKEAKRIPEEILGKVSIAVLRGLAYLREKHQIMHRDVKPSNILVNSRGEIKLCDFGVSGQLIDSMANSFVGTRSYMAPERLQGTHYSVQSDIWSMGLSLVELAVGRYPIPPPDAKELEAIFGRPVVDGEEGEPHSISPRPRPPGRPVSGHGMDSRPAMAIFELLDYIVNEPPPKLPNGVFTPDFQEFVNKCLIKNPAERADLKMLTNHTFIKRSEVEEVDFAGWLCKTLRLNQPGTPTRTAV
For the compound `CC(C)[C@H](CO)Nc1nc(Nc2cc(N)cc(Cl)c2)c2ncn(C(C)C)c2n1`, the residual activity stood at 87.5%.

`O=C1Nc2ccccc2/C1=C1\Nc2ccccc2\C1=N/O`: the residual activity amounted to 100%.

For the compound `O=C(Nc1cccc(Nc2cc(Nc3cccc(C(F)(F)F)c3)ncn2)c1)C1CC1`, the residual activity worked out at 101%.

A further assay concerns the target MAPK3 (human) (UniProt P27361). The assay is described as above. Conditions: compound 0.5 µM; ATP 10 µM.
On to `CC(C)[C@H](CO)Nc1nc(Nc2cc(N)cc(Cl)c2)c2ncn(C(C)C)c2n1`, for which the residual activity worked out at 106%.

Regarding `O=C1Nc2ccccc2/C1=C1\Nc2ccccc2\C1=N/O`, the residual activity was determined as 90.4%.

Turning to `O=C(Nc1cccc(Nc2cc(Nc3cccc(C(F)(F)F)c3)ncn2)c1)C1CC1`, the residual activity turned out to be 101%.

In a further assay the target is MAPK8 (human) (UniProt P45983). The assay is described as above. Conditions: compound 0.5 µM; ATP 10 µM.
`CC(C)[C@H](CO)Nc1nc(Nc2cc(N)cc(Cl)c2)c2ncn(C(C)C)c2n1`: the residual activity was found to be 93.4%.

For the compound `O=C1Nc2ccccc2/C1=C1\Nc2ccccc2\C1=N/O`, the residual activity was 101%.

Turning to `O=C(Nc1cccc(Nc2cc(Nc3cccc(C(F)(F)F)c3)ncn2)c1)C1CC1`, the residual activity worked out at 93.4%.

A further assay deals with MAPKAPK2 (human) (UniProt P49137). Described as above. Conditions: compound 0.5 µM; ATP 10 µM.
Consider `CC(C)[C@H](CO)Nc1nc(Nc2cc(N)cc(Cl)c2)c2ncn(C(C)C)c2n1`, for which the residual activity stood at 92.8%.

For the compound `O=C1Nc2ccccc2/C1=C1\Nc2ccccc2\C1=N/O`, the residual activity stood at 105%.

`O=C(Nc1cccc(Nc2cc(Nc3cccc(C(F)(F)F)c3)ncn2)c1)C1CC1`: the residual activity turned out to be 104%.

Another assay deals with MAPKAPK3 (human) (UniProt Q16644). The assay is described as above. The note with it: compound 0.5 µM; ATP 10 µM.
In the case of `CC(C)[C@H](CO)Nc1nc(Nc2cc(N)cc(Cl)c2)c2ncn(C(C)C)c2n1`, the residual activity worked out at 98.4%.

Consider `O=C1Nc2ccccc2/C1=C1\Nc2ccccc2\C1=N/O`, for which the residual activity was 103%.

Consider `O=C(Nc1cccc(Nc2cc(Nc3cccc(C(F)(F)F)c3)ncn2)c1)C1CC1`, for which the residual activity was found to be 104%.

The next assay concerns the target MET (human) (UniProt P08581). The description is as above. Conditions: compound 0.5 µM; ATP 10 µM.
In the case of `CC(C)[C@H](CO)Nc1nc(Nc2cc(N)cc(Cl)c2)c2ncn(C(C)C)c2n1`, the residual activity was 109%.

On to `O=C1Nc2ccccc2/C1=C1\Nc2ccccc2\C1=N/O`, for which the residual activity came to 110%.

Take `O=C(Nc1cccc(Nc2cc(Nc3cccc(C(F)(F)F)c3)ncn2)c1)C1CC1`: the residual activity was 103%.

In a further assay the target is MST4 (human) (UniProt Q9P289). The description is as above. Conditions: compound 0.5 µM; ATP 10 µM.
With `CC(C)[C@H](CO)Nc1nc(Nc2cc(N)cc(Cl)c2)c2ncn(C(C)C)c2n1`, the residual activity came to 67.8%.

Consider `O=C1Nc2ccccc2/C1=C1\Nc2ccccc2\C1=N/O`, for which the residual activity was determined as 75.3%.

In the case of `O=C(Nc1cccc(Nc2cc(Nc3cccc(C(F)(F)F)c3)ncn2)c1)C1CC1`, the residual activity came out at 98.9%.

As a reminder, the residual activity is the signal under treatment as a percentage of the control signal.
